In publication PMC8014119 (Angewandte Chemie (International Ed. in English), 2021):
Like-named read-outs stand apart in the source and are kept apart here.

What was measured:
[1] = system: SARS-CoV-2; details: Vero E6 cells; cited from earlier work
[2] = molecular target: SARS-CoV-2 Mpro (Severe acute respiratory syndrome coronavirus 2, UniProt P0DTD1); assay type: biochemical
[3] = molecular target: His-tagged SARS-CoV-2 Mpro (Severe acute respiratory syndrome coronavirus 2, UniProt P0DTD1); assay: Mpro inhibition in the presence of mammalian cell lysates; assay type: biochemical; details: 50 µM substrate, 10 min, 37 °C
[4] = molecular target: human cathepsin B (Homo sapiens, UniProt P07858); assay: Inhibition of human cathepsin B; assay type: biochemical; details: in words
[5] = molecular target: human cathepsin L (Homo sapiens, UniProt P07711); assay: Inhibition of human cathepsin L; assay type: biochemical; details: in words
[6] = Table 2, azapeptide nitriles, 50 µM substrate, pH 7.2, 37 °C, 60 min
[7] = Table 3, 5-halopyridin-3-yl esters, kinetic analysis as Table 2

Sequence of human cathepsin L (P07711 114-333): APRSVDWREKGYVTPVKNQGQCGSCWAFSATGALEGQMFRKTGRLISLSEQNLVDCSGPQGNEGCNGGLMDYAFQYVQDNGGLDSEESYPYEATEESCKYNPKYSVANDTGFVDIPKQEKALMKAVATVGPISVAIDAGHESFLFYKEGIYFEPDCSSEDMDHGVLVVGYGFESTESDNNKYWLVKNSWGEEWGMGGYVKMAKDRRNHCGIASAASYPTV

Compound	k inac/K i [2, 6]	Mpro inhibition in HEK and A549 cell lysates ([3]; inhibitor 1 μM)	k inac/K i [2, 7]	also measured
O=C(Oc1cncc(Cl)c1)c1cccc2c1CCN2 [5‐chloropyridin‐3‐yl dihydroindole‐4‐carboxylate]	–	–	–	activity against infectivity and replication of SARS-CoV-2 [1]: active
CC(C)C[C@H](NC(=O)OCc1ccccc1)C(=O)N(C)N(C#N)CCC(N)=O [Compound 3]	489 M⁻¹ s⁻¹	–	–	–
CN(C(=O)[C@H](Cc1ccccc1)NC(=O)OCc1ccccc1)N(C#N)CCC(N)=O [Compound 4]	1150 M⁻¹ s⁻¹	–	–	Mpro inhibition in HEK and A549 cell lysates ([3]; inhibitor 10 μM): virtually complete inhibition
CC(C)C[C@H](NC(=O)[C@@H](NC(=O)OCc1ccccc1)C(C)(C)C)C(=O)N(C)N(C#N)CCC(N)=O [Compound 5]	2060 M⁻¹ s⁻¹	–	–	–
CN(C(=O)[C@H](Cc1ccccc1)NC(=O)[C@@H](NC(=O)OCc1ccccc1)C(C)(C)C)N(C#N)CCC(N)=O [Compound 6]	36 000 M^−1 s^−1	virtually complete inhibition	–	–
CC[C@H](NC(=O)OCc1ccccc1)C(=O)N[C@H](C(=O)N[C@@H](CC(C)C)C(=O)N(C)N(C#N)CCC(N)=O)C(C)(C)C [Compound 7]	21 400 M^−1 s^−1	–	–	–
CC[C@H](NC(=O)OCc1ccccc1)C(=O)N[C@H](C(=O)N[C@@H](Cc1ccccc1)C(=O)N(C)N(C#N)CCC(N)=O)C(C)(C)C [Compound 8]	–	virtually complete inhibition	–	–
O=C(Oc1cncc(Cl)c1)c1cc2cc(Cl)ccc2[nH]1 [Compound 17]	–	virtually complete inhibition	29 100 M^−1 s^−1	cathepsin B inhibition [4]: did not inhibit; cathepsin L inhibition [5]: did not inhibit
O=C(Oc1cncc(Br)c1)c1cccc2[nH]ccc12 [Compound 18]	–	–	24 000 M^−1 s^−1	–
O=C(Oc1cncc(Cl)c1)c1ccc2[nH]c3c(c2c1)CCCC3 [Compound 19]	–	–	5620 M⁻¹ s⁻¹	–
